Values joined by “and” are separate entries in the source; they are usually repeats but may differ in a detail not shown here. Equal entries are not always repeated. Toxic doses and inconclusive results are not listed. Cut-off read from the data, not from the text of the source: active = T/C of 150% or more; inactive = T/C below 125%.
Tested on: L1210 leukemia ip in BDF1 mice, survival T/C
Experiment: NCI In Vivo Anticancer Drug Screen. Data for tumor model L1210 Leukemia (intraperitoneal) in B6D2F1 (BDF1) mice
Settings: endpoint: mean survival time, higher = longer survival
Summary of the method: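 Tumor cells were implanted, animals were treated, and survival was followed. The result divides the treated measurement by the vehicle-control measurement.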

[1] = dose: 15.0 mg/kg/injection, schedule: Q01DX Z (ip), vehicle: carboxymethylcellulose (CMC)
[2] = dose: 30.0 mg/kg/injection, schedule: Q01DX Z (ip), vehicle: carboxymethylcellulose (CMC)
[3] = dose: 60.0 mg/kg/injection, schedule: Q01DX Z (ip), vehicle: carboxymethylcellulose (CMC)
[4] = dose: 120.0 mg/kg/injection, schedule: Q01DX Z (ip), vehicle: carboxymethylcellulose (CMC)
[5] = dose: 100.0 mg/kg/injection, schedule: Q04DX003 (ip), vehicle: Klucel (hydroxypropylcellulose) (HPC)
[6] = dose: 200.0 mg/kg/injection, schedule: Q04DX003 (ip), vehicle: Klucel (hydroxypropylcellulose) (HPC)
[7] = dose: 400.0 mg/kg/injection, schedule: Q04DX003 (ip), vehicle: Klucel (hydroxypropylcellulose) (HPC)
[8] = dose: 50.0 mg/kg/injection, schedule: Q01DX001 (ip), vehicle: carboxymethylcellulose (CMC)
[9] = dose: 100.0 mg/kg/injection, schedule: Q01DX001 (ip), vehicle: carboxymethylcellulose (CMC)
[10] = dose: 100.0 mg/kg/injection, schedule: Q04DX002 (ip), vehicle: Klucel (hydroxypropylcellulose) (HPC)
[11] = dose: 200.0 mg/kg/injection, schedule: Q04DX002 (ip), vehicle: Klucel (hydroxypropylcellulose) (HPC)

Measured: T/C

N=C(N)N=Nc1c(O)[nH]c(=O)[nH]c1=O
inactive: [1] 98 % of control | [2] 98 % of control | [3] 93 % of control | dose: 60.0 mg/kg/injection, schedule: Q01DX Z (oral), vehicle: carboxymethylcellulose (CMC) 110 % of control | [4] 97 % of control | dose: 120.0 mg/kg/injection, schedule: Q01DX Z (oral), vehicle: carboxymethylcellulose (CMC) 108 % of control | dose: 240.0 mg/kg/injection, schedule: Q01DX Z (oral), vehicle: carboxymethylcellulose (CMC) 104 % of control | dose: 480.0 mg/kg/injection, schedule: Q01DX Z (oral), vehicle: carboxymethylcellulose (CMC) 108 % of control

CCN(CC)c1ccc(C(=O)c2ccc(N(CC)CC)cc2)cc1
inactive: [1] 88 % of control | [2] 92 % of control | [3] 92 % of control and 95 % of control | [4] 94 % of control and 100 % of control | dose: 240.0 mg/kg/injection, schedule: Q01DX Z (ip), vehicle: carboxymethylcellulose (CMC) 100 % of control | dose: 480.0 mg/kg/injection, schedule: Q01DX Z (ip), vehicle: carboxymethylcellulose (CMC) 118 % of control

Nc1c(-c2ccccc2)[nH][nH]c1=O
inactive: dose: 100.0 mg/kg/injection, schedule: Q01DX001 (ip), vehicle: Klucel (hydroxypropylcellulose) (HPC) 91 % of control | dose: 100.0 mg/kg/injection, schedule: Q01DX009 (ip), vehicle: Klucel (hydroxypropylcellulose) (HPC) 92 % of control | [5] 100 % of control | dose: 200.0 mg/kg/injection, schedule: Q01DX001 (ip), vehicle: Klucel (hydroxypropylcellulose) (HPC) 99 % of control | dose: 200.0 mg/kg/injection, schedule: Q01DX009 (ip), vehicle: Klucel (hydroxypropylcellulose) (HPC) 92 % of control | [6] 102 % of control | dose: 400.0 mg/kg/injection, schedule: Q01DX001 (ip), vehicle: Klucel (hydroxypropylcellulose) (HPC) 94 % of control | dose: 400.0 mg/kg/injection, schedule: Q01DX009 (ip), vehicle: Klucel (hydroxypropylcellulose) (HPC) 93 % of control | [7] 104 % of control

CCCNC(=O)NS(=O)(=O)c1ccc(Cl)cc1
inactive: [5] 93 % of control | [6] 94 % of control | [7] 104 % of control

CSc1ccc(NC(=O)Nc2ccccc2C(F)(F)F)cc1
inactive: dose: 100.0 mg/kg/injection, schedule: Q01DX009 (ip), vehicle: other 96 % of control | dose: 200.0 mg/kg/injection, schedule: Q01DX009 (ip), vehicle: other 96 % of control | dose: 400.0 mg/kg/injection, schedule: Q01DX009 (ip), vehicle: other 95 % of control

CCOC(=O)C(C#N)C(C)CC(C)C (centres undefined)
inactive: dose: 50.0 mg/kg/injection, schedule: Q01DX001 (ip), vehicle: saline with Tween-80 102 % of control | dose: 100.0 mg/kg/injection, schedule: Q01DX001 (ip), vehicle: saline with Tween-80 102 % of control | dose: 200.0 mg/kg/injection, schedule: Q01DX001 (ip), vehicle: saline with Tween-80 93 % of control

C=CCN(CC=C)c1nc(Cl)nc(Cl)n1
inactive: [8] 106 % of control | [9] 98 % of control | [10] 105 % of control | [11] 101 % of control

O=C(Nc1ccccc1)NS(=O)(=O)CS(=O)(=O)NC(=O)Nc1ccccc1
inactive: dose: 100.0 mg/kg/injection, schedule: Q01DX001 (ip), vehicle: saline 104 % of control | dose: 200.0 mg/kg/injection, schedule: Q01DX001 (ip), vehicle: saline 102 % of control | dose: 400.0 mg/kg/injection, schedule: Q01DX001 (ip), vehicle: saline 109 % of control

O=[N+]([O-])c1cc([N+](=O)[O-])c(NC(c2ccccc2)C(O)c2ccccc2)c([N+](=O)[O-])c1 (centres undefined)
inactive: dose: 100.0 mg/kg/injection, schedule: Q04DX003 (ip), vehicle: acetone 98 % of control | dose: 200.0 mg/kg/injection, schedule: Q04DX003 (ip), vehicle: acetone 96 % of control | dose: 400.0 mg/kg/injection, schedule: Q04DX003 (ip), vehicle: acetone 93 % of control

Cn1c(CC(O)(C(F)(F)F)C(F)(F)F)ccc1CC(O)(C(F)(F)F)C(F)(F)F
inactive: dose: 100.0 mg/kg/injection, schedule: Q01DX001 (ip), vehicle: gum acacia 107 % of control | dose: 200.0 mg/kg/injection, schedule: Q01DX001 (ip), vehicle: gum acacia 103 % of control | dose: 400.0 mg/kg/injection, schedule: Q01DX001 (ip), vehicle: gum acacia 98 % of control

N#Cc1ccc(CC(O)(c2ccccc2)c2ccccc2)cc1
inactive: [8] 106 % of control | [9] 101 % of control | dose: 200.0 mg/kg/injection, schedule: Q01DX001 (ip), vehicle: carboxymethylcellulose (CMC) 98 % of control | dose: 400.0 mg/kg/injection, schedule: Q01DX001 (ip), vehicle: carboxymethylcellulose (CMC) 89 % of control

COc1ccc(OC)c(NCCCN2C(=O)c3ccccc3C2=O)c1
inactive: [10] 87 % of control | [11] 102 % of control | dose: 400.0 mg/kg/injection, schedule: Q04DX002 (ip), vehicle: Klucel (hydroxypropylcellulose) (HPC) 91 % of control

COc1ccc(CC2(C#N)c3ccccc3C=CN2C(=O)c2ccccc2)c([N+](=O)[O-])c1OC (centres undefined)
inactive: dose: 50.0 mg/kg/injection, schedule: Q04DX002 (ip), vehicle: saline with Tween-80 97 % of control | dose: 100.0 mg/kg/injection, schedule: Q04DX002 (ip), vehicle: saline with Tween-80 87 % of control | dose: 200.0 mg/kg/injection, schedule: Q04DX002 (ip), vehicle: saline with Tween-80 97 % of control

C[C@]12CCC(=O)C=C1CC[C@H]1[C@@H]3CCC(=O)[C@@]3(C)CC(=O)[C@@]12S
inactive: dose: 100.0 mg/kg/injection, schedule: Q01DX001 (ip), vehicle: steriod suspending solution 87 % of control | dose: 100.0 mg/kg/injection, schedule: Q04DX003 (ip), vehicle: steriod suspending solution 93 % of control | dose: 200.0 mg/kg/injection, schedule: Q01DX001 (ip), vehicle: steriod suspending solution 93 % of control | dose: 200.0 mg/kg/injection, schedule: Q04DX003 (ip), vehicle: steriod suspending solution 108 % of control | dose: 400.0 mg/kg/injection, schedule: Q01DX001 (ip), vehicle: steriod suspending solution 97 % of control | dose: 400.0 mg/kg/injection, schedule: Q04DX003 (ip), vehicle: steriod suspending solution 95 % of control

Cc1c(CC=C(c2ccccc2)c2ccccc2)cccc1C[N+](C)(C)C
inactive: dose: 5.0 mg/kg/injection, schedule: Q01DX001 (ip), vehicle: carboxymethylcellulose (CMC) 101 % of control | dose: 10.0 mg/kg/injection, schedule: Q01DX001 (ip), vehicle: carboxymethylcellulose (CMC) 106 % of control | dose: 20.0 mg/kg/injection, schedule: Q01DX001 (ip), vehicle: carboxymethylcellulose (CMC) 98 % of control | dose: 40.0 mg/kg/injection, schedule: Q01DX001 (ip), vehicle: carboxymethylcellulose (CMC) 90 % of control | dose: 80.0 mg/kg/injection, schedule: Q01DX001 (ip), vehicle: carboxymethylcellulose (CMC) 90 % of control | [9] 93 % of control

Cc1ccc(S(=O)(=O)NC(=O)OC/C=C/c2ccccc2)cc1
inactive: dose: 100.0 mg/kg/injection, schedule: Q01DX009 (ip), vehicle: alcohol 96 % of control | dose: 200.0 mg/kg/injection, schedule: Q01DX009 (ip), vehicle: alcohol 94 % of control | dose: 400.0 mg/kg/injection, schedule: Q01DX009 (ip), vehicle: alcohol 110 % of control

COc1ccc(NC2=CC(=O)N(c3ccc(OC)cc3)C2=O)cc1
inactive: dose: 100.0 mg/kg/injection, schedule: Q04DX003 (ip), vehicle: other 86 % of control | dose: 200.0 mg/kg/injection, schedule: Q04DX003 (ip), vehicle: other 98 % of control | dose: 400.0 mg/kg/injection, schedule: Q04DX003 (ip), vehicle: other 98 % of control

CN(C)c1ccc(N=Nc2ccc(C(C)(C)C)cc2)cc1
inactive: dose: 100.0 mg/kg/injection, schedule: Q01DX009 (ip), vehicle: saline with Tween-80 97 % of control | dose: 100.0 mg/kg/injection, schedule: Q04DX003 (ip), vehicle: saline with Tween-80 95 % of control | dose: 200.0 mg/kg/injection, schedule: Q01DX009 (ip), vehicle: saline with Tween-80 94 % of control | dose: 200.0 mg/kg/injection, schedule: Q04DX003 (ip), vehicle: saline with Tween-80 86 % of control | dose: 400.0 mg/kg/injection, schedule: Q01DX009 (ip), vehicle: saline with Tween-80 89 % of control | dose: 400.0 mg/kg/injection, schedule: Q04DX003 (ip), vehicle: saline with Tween-80 96 % of control

From PubChem BioAssay AID248 (DTP/NCI, 2004)
